Experimental data from PMC6474387, “Salt-Tolerant Antifungal and Antibacterial Activities of the Corn Defensin ZmD32” (Frontiers in Microbiology, 2019).
Where two headings read alike, the source gives them in different places.

How the values were obtained:
C. krusei = format: cell-based, Candida krusei; details: OD595, 24 h
C. parapsilosis = format: cell-based, Candida parapsilosis; details: OD595, 24 h
C. glabrata ATCC 90030 = format: cell-based, Candida glabrata; details: OD595, 24 h
[1] = test system: E. coli, B. subtilis, S. aureus, and P. aeruginosa; format: cell-based; details: ½ PDB, pH 7; range over four bacteria
S. aureus ATCC 9144 = format: cell-based, Staphylococcus aureus; details: ½ PDB adjusted to pH 7, no added NaCl; OD595, 24 h
C. tropicalis ATCC 750 = format: cell-based, Candida tropicalis; details: OD595, 24 h
F. graminearum PH-1 = format: cell-based, Fusarium graminearum; details: ½ PDB, no added NaCl; 5 × 10^4 spores/mL; OD595, 24 h
S. aureus = details: assays conducted in LB; ref van der Weerden et al., 2008; cited from earlier work
Description: (§1) The antibacterial activity of ZmD32 and NaD1 adds to a growing list of antibacterial defensins ([Sathoff and Samac, 2018]; [Sathoff et al., 2018]; [Velivelli et al., 2018]), a protein family that is best known for antifungal activity ([van der Weerden and Anderson, 2013]; [van der Weerden et al., 2013]; [Parisi et al., 2018]). The lack of reported antibacterial activity for plant defensins likely reflects the medium used for antibacterial assays, Here the ½ PDB pH 7 medium has a NaCl concentration of less than 10 mM. This concentration is considerably lower than growth media often used in anti ...

E. coli [2] = details: assays conducted in LB; ref van der Weerden et al., 2008; cited from earlier work
Description: as §1

E. coli [3] = format: cell-based, Escherichia coli; details: strain TOP10, OD595, 24 h
P. aeruginosa PAO1 = format: cell-based, Pseudomonas aeruginosa; details: ½ PDB adjusted to pH 7, no added NaCl; OD595, 24 h
C. albicans biofilms = assay: Anti-biofilm assay, Presto Blue viability; format: cell-based, Candida albicans; details: 24 h biofilm, 24 h treatment at 37°C in RPMI (132.1 mM sodium), twofold dilution from 300 μg/mL
[4] = Membrane lipid binding assay (protein-lipid overlay); details: detected with α-NaD2 (ZmD32) or α-NaD1 (NaD1) antibody; representative of three independent experiments
Description: Lipid binding assays were performed using Membrane Lipid Strips (Echelon Biosciences) as described in ([Poon et al., 2014]). ZmD32 binding to the lipids on the strips was detected using a polyclonal antibody generated in rabbits to the defensin NaD2 with which it shares 78.7% amino acid sequence identity ([Dracatos et al., 2014]). […] Lipid binding of NaD1 was performed as described in ([Poon et al., 2014]).

C. albicans ATCC 90028 = format: cell-based, Candida albicans
B. subtilis = format: cell-based, Bacillus subtilis; details: ½ PDB adjusted to pH 7, no added NaCl, OD595, 24 h
C. auris = format: cell-based, Candida auris; details: OD595, 24 h
[5] = test system: Leukemia monocyte lymphoma (U937) cells; assay: MTT cell viability assay, U937; details: 48 h, twofold dilution series from 50 μM down, three independent replicates
Description: (§2) Leukemia monocyte lymphoma (U937) cells and prostate cancer (PC3) cells were cultured in RPMI-1640 medium (Sigma) buffered to pH 7.2 with HEPES and supplemented with 5–10% (v/v) fetal calf serum (FCS), 100 U/mL penicillin (Sigma) and 100 μg/mL streptomycin (Invitrogen). […] All cell lines were cultured at 37°C in a humidified atmosphere containing 5% CO2. Cell viability assays were performed using an MTT assay as described in ([Poon et al., 2014]). […] IC50 values were determined using GraphPad Prism 5 (GraphPad Software, CA, United States).

[6] = test system: prostate cancer (PC3) cells; assay: MTT cell viability assay, PC3; details: 48 h, twofold dilution series from 50 μM down, three independent replicates
Description: as §2

[7] = ½ PDB + 100 mM NaCl, read-out: NaCl IC50
[8] = ½ PDB, no added NaCl, read-out: IC50

Description for human red blood cells: Human blood was obtained from the Australian Red Cross Blood Service (Melbourne, VIC, Australia) under Material Supply Agreement 14-11VIC-03. Hemolytic activity of defensins was assessed as described in ([Evans et al., 2013]). The degree of red blood cell (RBC) lysis was measured by absorbance at 412 nm, relative to water-lysed RBCs.

NaD1: well-characterized antifungal plant defensin from Nicotiana alata floral tissues or recombinant from Pichia pastoris; used as standard (RECKTESNTFPGICITKPPCRKACISEKFTDGHCSKILRRCLCTKPC; UniProt Q8GTM0 26-72, looked up)
IC50 (C. krusei; [7]): > 10000 nM
IC50 (C. krusei; [8]): 1200 ± 400 nM
IC50 (C. parapsilosis; [7]): 3400 ± 1200 nM
IC50 (C. parapsilosis; [8]): 1200 ± 300 nM
IC50 (C. glabrata ATCC 90030; [7]): > 10000 nM
IC50 (C. glabrata ATCC 90030; [8]): 2800 ± 1000 nM
IC50 [1]: 2000 to 5000 nM
IC50 (S. aureus ATCC 9144): 5000 ± 500 nM
IC50 (C. tropicalis ATCC 750; [7]): 1300 ± 500 nM
IC50 (C. tropicalis ATCC 750; [8]): 400 ± 100 nM
Red blood cells lysed at concentrations up to 50 μM (human red blood cells): ≤ 2%
IC50 (F. graminearum PH-1): 1000 ± 500 nM
Activity against S. aureus (S. aureus): no activity
Activity against E. coli (E. coli [2]): no activity
IC50 (E. coli [3]; ½ PDB adjusted to pH 7 + 100 mM NaCl, read-out: NaCl IC50): > 10000 nM
IC50 (E. coli [3]; ½ PDB adjusted to pH 7, no added NaCl, read-out: IC50): 4600 ± 1600 nM
IC50 (P. aeruginosa PAO1): 4300 ± 300 nM
Activity against established C. albicans biofilms (C. albicans biofilms): no activity
Lipids bound on membrane lipid strip [4]: bound preferentially to phosphatidylinositol-4,5-bisphosphate [PI(4,5)P2] but also bound to phosphatidic acid (PA) and cardiolipin
Activity against C. albicans in the presence of divalent metal salts (C. albicans ATCC 90028; 5 mM MgCl2 or 2 mM CaCl2, data not shown): lost activity
IC50 (C. albicans ATCC 90028; read-out: IC50): 1600 ± 400 nM
IC50 (C. albicans ATCC 90028; read-out: NaCl IC50): > 10000 nM
IC50 (B. subtilis): 2000 ± 200 nM
IC50 (C. auris; [7]): > 10000 nM
IC50 (C. auris; [8]): 2900 ± 500 nM
Effect on viability of U937 cells [5]: decreased viability of all three cell lines at much lower concentrations than ZmD32
Effect on viability of PC3 cells [6]: decreased viability of all three cell lines at much lower concentrations than ZmD32
